Experimental data reported in US6352958B1, “Cycloimido-substituted benzofused heterocyclic herbicides” (FMC Corporation, priority 1997, dated 2002).

Legend:
Format in all cases: in vivo
[1] = system: Johnsongrass (Sorghum halepense); assay: Postemergence herbicidal activity, johnsongrass; details: rate of application 0.3 Kg/Ha, rated after 12-17 days
[2] = system: soybean (Glycine max var. Winchester); assay: Preemergence herbicidal activity, soybean; details: Rate of Application 0.3 Kg/Ha, examined after 12-17 days
[3] = system: Johnsongrass (Sorghum halepense); assay: Preemergence herbicidal activity, johnsongrass; details: Rate of Application 0.3 Kg/Ha, examined after 12-17 days
[4] = system: soybean (Glycine max var. Winchester); assay: Postemergence herbicidal activity, soybean; details: rate of application 0.3 Kg/Ha, rated after 12-17 days
[5] = system: blackgrass (Aloepecurus myosuroides); assay: Postemergence herbicidal activity, blackgrass; details: rate of application 0.3 Kg/Ha, rated after 12-17 days
Description: The benzofused heterocyclic compounds of this invention were tested for pre- and postemergence herbicidal activity using a variety of crops and weeds. The test plants included soybean (Glycine max var. Winchester), field corn (Zea mays var. Pioneer 3732), wheat (Triticum aestivum var. Lew), morningglory (Ipomea lacunosa or Ipomea hederacea), velvetleaf (Abutilon theophrasti), green foxtail (Setaria viridis), Johnsongrass (Sorghum halepense), blackgrass (Aloepecurus myosuroides), common chickweed (Stellaria media), and common cocklebur (Xanthium strumarium L.).
For preemergence testing, two disposable fiber flats (8 cm×15 cm×25 cm) for each rate of application of each candidate herbicide were filled to an approximate depth of 6.5 cm with steam-sterilized sandy loam soil. The soil was leveled and impressed with a template to provide five evenly spaced furrows 13 cm long and 0.5 cm deep in each flat. Seeds of soybean, wheat, corn, green foxtail, and johnsongrass were planted in the furrows of the first flat, and seeds of velvetleaf, morningglory, common chickweed, cocklebur, and blackgrass were planted in the furrows of the second flat. The five-row template was employed to firmly press the seeds into place. A topping soil of equal portions of sand and sandy loam soil was placed uniformly on top of each flat to a depth of approximately 0.5 cm. Flats for postemergence testing were prepared in the same manner except that they were planted 9-14 days prior to the preemergence flats and were placed in a greenhouse and watered, thus allowing the seeds to germinate and the foliage to develop.
In both pre- and postemergence tests, a stock solution of the candidate herbicide was prepared by dissolving 0.27 g of the compound in 20 mL of water/acetone (50/50) containing 0.5% v/v sorbitan monolaurate. For an application rate of 3000 g/ha of herbicide a 10 mL portion of the stock solution was diluted with water/acetone (50/50) to 45 mL.
The preemergence flats were initially subjected to a light water spray. The four flats were placed two by two along a conveyor belt (i.e., the two preemergence followed by the two postemergence flats). The conveyor belt fed under a spray nozzle mounted about ten inches above the post-emergent foliage. The preemergent flats were elevated on the belt so that the soil surface was at the same level below the spray nozzle as the foliage canopy of the postemergent plants. The spray of herbicidal solution was commenced and once stabilized, the flats were passed under the spray at a speed to receive a coverage equivalent of 100 L/ha. At this coverage the application rates are those shown in the above table for the individual herbicidal solutions. The preemergence flats were watered immediately thereafter, placed in the greenhouse and watered regularly at the soil surface. The postemergence flats were immediately placed in the green-house and not watered until 24 hours after treatment with the test solution. Thereafter they were regularly watered at ground level. After 12-17 days the plants were examined and the phytotoxicity data were recorded.
Phytotoxicity data were taken as percent control. Percent control was determined by a method similar to the 0 to 100 rating system disclosed in “Research Methods in Weed Science,” 2nd ed., B. Truelove, Ed.; Southern Weed Science Society; Auburn University, Auburn, Ala., 1977.

[6] = system: velvetleaf (Abutilon theophrasti); assay: Postemergence herbicidal activity, velvetleaf; details: rate of application 0.3 Kg/Ha, rated after 12-17 days
[7] = system: common cocklebur (Xanthium strumarium L.); assay: Postemergence herbicidal activity, cocklebur; details: rate of application 0.3 Kg/Ha, rated after 12-17 days
[8] = system: morningglory (Ipomea lacunosa or Ipomea hederacea); assay: Postemergence herbicidal activity, morningglory; details: rate of application 0.3 Kg/Ha, rated after 12-17 days
[9] = system: field corn (Zea mays var. Pioneer 3732); assay: Postemergence herbicidal activity, corn; details: rate of application 0.3 Kg/Ha, rated after 12-17 days
[10] = system: common cocklebur (Xanthium strumarium L.); assay: Preemergence herbicidal activity, cocklebur; details: Rate of Application 0.3 Kg/Ha, examined after 12-17 days
[11] = system: blackgrass (Aloepecurus myosuroides); assay: Preemergence herbicidal activity, blackgrass; details: Rate of Application 0.3 Kg/Ha, examined after 12-17 days
[12] = system: field corn (Zea mays var. Pioneer 3732); assay: Preemergence herbicidal activity, corn; details: Rate of Application 0.3 Kg/Ha, examined after 12-17 days
[13] = system: wheat (Triticum aestivum var. Lew); assay: Postemergence herbicidal activity, wheat; details: rate of application 0.3 Kg/Ha, rated after 12-17 days
[14] = system: morningglory (Ipomea lacunosa or Ipomea hederacea); assay: Preemergence herbicidal activity, morningglory; details: Rate of Application 0.3 Kg/Ha, examined after 12-17 days
[15] = system: green foxtail (Setaria viridis); assay: Preemergence herbicidal activity, green foxtail; details: Rate of Application 0.3 Kg/Ha, examined after 12-17 days
[16] = system: wheat (Triticum aestivum var. Lew); assay: Preemergence herbicidal activity, wheat; details: Rate of Application 0.3 Kg/Ha, examined after 12-17 days
[17] = system: green foxtail (Setaria viridis); assay: Postemergence herbicidal activity, green foxtail; details: rate of application 0.3 Kg/Ha, rated after 12-17 days
[18] = system: velvetleaf (Abutilon theophrasti); assay: Preemergence herbicidal activity, velvetleaf; details: Rate of Application 0.3 Kg/Ha, examined after 12-17 days
[19] = system: common chickweed (Stellaria media); assay: Preemergence herbicidal activity, chickweed; details: Rate of Application 0.3 Kg/Ha, examined after 12-17 days
[20] = system: common chickweed (Stellaria media); assay: Postemergence herbicidal activity, chickweed; details: rate of application 0.3 Kg/Ha, rated after 12-17 days

Row | Compound | Postemergence herbicidal activity (% control) SORHA [1] [%] | PREEMERGENCE HERBICIDAL ACTIVITY (% CONTROL) SOY [2] [%] | PREEMERGENCE HERBICIDAL ACTIVITY (% CONTROL) SORHA [3] [%] | Postemergence herbicidal activity (% control) SOY [4] [%] | Postemergence herbicidal activity (% control) ALOMY [5] [%] | Postemergence herbicidal activity (% control) ABUTH [6] [%] | Postemergence herbicidal activity (% control) XANPE [7] [%] | Postemergence herbicidal activity (% control) IPOSS [8] [%] | Postemergence herbicidal activity (% control) CRN [9] [%] | PREEMERGENCE HERBICIDAL ACTIVITY (% CONTROL) XANPE [10] [%] | PREEMERGENCE HERBICIDAL ACTIVITY (% CONTROL) ALOMY [11] [%] | PREEMERGENCE HERBICIDAL ACTIVITY (% CONTROL) CRN [12] [%] | Postemergence herbicidal activity (% control) WHT [13] [%] | PREEMERGENCE HERBICIDAL ACTIVITY (% CONTROL) IPOSS [14] [%] | PREEMERGENCE HERBICIDAL ACTIVITY (% CONTROL) SETVI [15] [%] | PREEMERGENCE HERBICIDAL ACTIVITY (% CONTROL) WHT [16] [%] | Postemergence herbicidal activity (% control) SETVI [17] [%] | PREEMERGENCE HERBICIDAL ACTIVITY (% CONTROL) ABUTH [18] [%] | PREEMERGENCE HERBICIDAL ACTIVITY (% CONTROL) STEME [19] [%] | Postemergence herbicidal activity (% control) STEME [20] [%]
1 | Cn1c(C(F)(F)F)cc(=O)n(-c2c(F)cc(Cl)c3nc(CCc4ccccc4)[nH]c23)c1=O [Compound 379] | 100 | 100 | 95 | 95 | 70 | 100 | 100 | 100 | 100 | 100 | 80 | 70 | 80 | 100 | 100 | 50 | 100 | 100 | – | –
2 | C#CCOc1nc2c(-n3c(=O)cc(C(F)(F)F)n(C)c3=O)c(F)cc(Br)c2o1 [Compound 106] | 70 | 30 | 55 | 80 | 60 | 100 | – | 100 | 75 | 60 | 70 | 70 | 30 | 100 | 90 | 40 | 100 | 100 | 95 | –
3 | Cn1c(C(F)(F)F)cc(=O)n(-c2c(F)cc(Cl)c3nc(Cc4ccccc4Cl)[nH]c23)c1=O [Compound 381] | 100 | 100 | 80 | 95 | 100 | 100 | 100 | 100 | 95 | 100 | 90 | 80 | 40 | 100 | 100 | 40 | 100 | 100 | – | –
4 | Cn1c(C(F)(F)F)cc(=O)n(-c2c(F)cc(Cl)c3nc(CCCc4ccccc4)[nH]c23)c1=O [Compound 380] | 80 | 80 | 70 | 95 | 70 | 100 | 100 | 100 | 95 | 80 | 90 | 20 | 30 | 100 | 100 | 35 | 100 | 100 | – | –
5 | CC(OC(=O)c1ccccc1)c1cc2c(Cl)cc(F)c(-n3c(=O)cc(C(F)(F)F)n(C)c3=O)c2o1 (centres unmarked) [Compound 248] | 100 | 100 | 100 | 80 | – | 100 | 100 | 100 | 95 | 100 | 95 | 95 | 50 | 100 | 100 | 90 | 100 | 100 | 100 | 100
6 | Cn1c(C(F)(F)F)cc(=O)n(-c2c(F)cc(Br)c3oc(COc4ccc(Cl)cc4)nc23)c1=O [Compound 102] | 60 | 20 | 60 | 80 | 60 | 100 | – | 100 | 75 | 50 | 90 | 10 | 30 | 70 | 100 | 30 | 90 | 100 | – | –
7 | CC(=O)OCc1nc2c(-n3c(=O)cc(C(F)(F)F)n(C)c3=O)c(F)cc(Br)c2o1 [Compound 101] | 65 | 80 | 100 | 95 | 60 | 100 | – | 100 | 80 | 80 | 80 | 100 | 50 | 100 | 100 | 70 | 65 | 100 | – | –
